Test results from PubChem BioAssay (NCI).
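Following 48 hours of exposure in 96-well plates, responses at five concentrations were used to interpolate endpoints linearly. Here, GI50 denotes the concentration required for 50% inhibition of growth. TGI: total growth inhibition.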

Experiments:
Test in all cases: inhibition of tumour cell growth, NCI panel, 48 h
MDA-N = tested on: MDA-N
DMS 273 small cell lung = tested on: DMS 273 small cell lung
HOP-18 NSCLC = tested on: HOP-18 NSCLC
KM20L2 colon = tested on: KM20L2 colon
LXFL 529 NSCLC = tested on: LXFL 529 NSCLC
M19-MEL melanoma = tested on: M19-MEL melanoma
SNB-78 CNS = tested on: SNB-78 CNS
XF 498 CNS = tested on: XF 498 CNS
RXF-631 renal = tested on: RXF-631 renal

| Compound | TGI (MDA-N) [µM] | TGI (DMS 273 small cell lung) [µM] | TGI (HOP-18 NSCLC) [µM] | TGI (KM20L2 colon) [µM] | TGI (LXFL 529 NSCLC) [µM] | TGI (M19-MEL melanoma) [µM] | TGI (SNB-78 CNS) [µM] | TGI (XF 498 CNS) [µM] | TGI (RXF-631 renal) [µM] | further results |
| --- | --- | --- | --- | --- | --- | --- | --- | --- | --- | --- |
| Cc1cc(O)cc2c1c(=O)c1ccccc1n2C | > 100 |  |  |  |  |  |  |  |  |  |
| N#Cc1c2c(c(-c3cccs3)n(C3OC(CO)C(O)C(O)C3O)c1=S)CCc1ccccc1-2 (centres undefined) | > 100 |  |  |  |  |  |  |  |  |  |
| COc1cc(C2c3cc4c(cc3[C@@H](Nc3ccc(N)cc3)C3COC(=O)[C@H]23)OCO4)cc(OC)c1O (some centres undefined) | 18.4 | 5.39 | 40.4 | 21.4 | 31 | 23.7 | 60.5 | 13.6 |  | GI50 (HOP-18 NSCLC): 0.944 µM; GI50 (M19-MEL melanoma): 0.99 µM; GI50 (XF 498 CNS): 0.716 µM |
| COc1ccc2c(c1)OCCC1=C2SCC2(C)CCN=C12 (centres undefined) |  | > 100 | > 100 | > 100 | > 100 |  | > 100 | > 100 |  |  |
| CC(=O)O[C@H]1C=CC23OC(=O)[C@]1(C)[C@H]2[C@H](C(=O)O)C12CC(=O)[C@@](CO)(CC[C@H]13)C2 |  | > 100 | > 100 | > 100 | > 100 | > 100 | > 100 | > 100 | > 100 |  |
| NS(=O)(=O)c1ccc(NC(=O)Nc2ccccc2F)cc1 | > 100 |  |  |  |  |  |  |  |  |  |
| Nc1ccc(C(=O)N/C(=C\c2cccc([N+](=O)[O-])c2)c2nc3c4c(ccc3[nH]2)C(=O)c2ccccc2C4=O)cc1 |  | > 100 | > 100 | > 100 | > 100 | > 100 | > 100 | > 100 | > 100 |  |
| Nc1c(-c2nc3ccccc3[nH]2)sc(=S)n1-c1ccc(Cl)cc1 |  | 39.8 | 38.6 |  |  | 84.2 | 66.3 | 52.4 |  |  |
| COc1ccc(C(=O)O/N=C2/CCC/C2=C\c2ccccc2)cc1 |  | > 100 | > 100 | > 100 | > 100 | > 100 | > 100 | > 100 | > 100 |  |
| COc1ccc(/C=N/N=C(\[O-])c2ccncc2)cc1F.COc1ccc(/C=N\N=C(/[O-])c2ccncc2)cc1F.[Cu+2] | > 100 |  |  |  |  |  |  |  |  | GI50 (MDA-N): 32.7 µM |
| COC(=O)Cc1nc2ccccc2o1 |  | > 100 | > 100 | 46.4 | > 100 | > 100 | > 100 | > 100 | > 100 |  |
| COc1cc([C@@H]2c3cc4c(cc3C[C@H]3COC(=O)[C@@H]32)OCO4)cc2c1OCO2 | < 0.01 |  |  |  |  |  |  |  |  |  |
| C[n+]1c(N)n(C(=O)OCc2ccccc2)c(=O)c2c1ncn2C(=O)OCc1ccccc1 |  | > 100 | > 100 | > 100 | > 100 | > 100 | > 100 |  |  |  |
| Cn1ccnc1C[N-]Cc1nccn1C.O=[N+]([O-])[O-].O=[N+]([O-])[O-].[Cu+2] |  | > 100 | > 100 | > 100 | > 100 |  | > 100 |  |  | GI50 (DMS 273 small cell lung): 73.8 µM; GI50 (HOP-18 NSCLC): > 100 µM; GI50 (KM20L2 colon): > 100 µM; GI50 (LXFL 529 NSCLC): > 100 µM; GI50 (SNB-78 CNS): > 100 µM |
| CC1=C(C(=O)Nc2ccccc2)C(c2ccc(C(C)C)cc2)C(C(=O)Nc2ccccc2)=C(C)N1 |  |  | 49.3 | 31.7 | > 67.7 | 35.6 | > 100 | 27 | > 85.1 |  |
| Cc1ccc(S(=O)OC23CC4CC(CC(C4)C2)C3)cc1 (centres undefined) |  | > 100 | > 100 | > 100 | > 100 | > 100 | > 100 | > 100 | > 100 |  |
| COc1ccc2nc3cccc(C(=O)NCCN(C)C)c3nc2c1 |  | > 100 | > 21.8 | 6.46 |  | 3.5 | 9.01 | 0.696 | > 100 |  |
| CCOC(=O)/N=c1/nc(N(C)C)ss1 |  | > 100 | > 100 | > 100 | > 100 |  | > 100 | > 100 | > 100 |  |

| Compound | TGI (MDA-N) [µM] | TGI (DMS 273 small cell lung) [µM] | TGI (HOP-18 NSCLC) [µM] | TGI (KM20L2 colon) [µM] | TGI (LXFL 529 NSCLC) [µM] | TGI (M19-MEL melanoma) [µM] | TGI (SNB-78 CNS) [µM] | TGI (XF 498 CNS) [µM] | TGI (RXF-631 renal) [µM] | further results |
| --- | --- | --- | --- | --- | --- | --- | --- | --- | --- | --- |
| NS(=O)(=O)c1ccc(NC(=O)COC(=O)c2cccc3c(=O)c4ccccc4[nH]c23)cc1 |  | > 95.1 | 58.9 | > 100 | 20.9 | > 100 | 44.5 |  | > 100 |  |
| COc1ccc(C2=NOP(c3ccccc3)(c3ccccc3)(c3ccccc3)C2)cc1 |  | > 47.6 | > 100 | > 76.2 | > 56.7 | 57.7 | > 100 | 49.7 | > 100 |  |
| COc1ccc(NC(=O)/C=C(C)/C=C/C=C(C)\C=C\C2=C(C)CCCC2(C)C)cc1 | > 100 |  |  |  |  |  |  |  |  | GI50 (MDA-N): 55.3 µM |
| NCP(=O)(O)OCC(=O)O |  | > 100 | > 100 |  | > 100 |  | > 100 | > 100 |  |  |
| Cc1ccc(NC(=O)CCC(=O)C(C#N)c2ccccc2)cc1C (centres undefined) |  | > 100 | > 100 | > 100 | > 100 |  | > 100 | > 100 | > 100 |  |
| O=C(c1ccccc1)C1C(C(=O)c2ccccc2)C(c2ccccc2)N(c2ccccc2)C1c1ccccc1 (centres undefined) | > 100 |  |  |  |  |  |  |  |  |  |
| N=C(N)SCCc1ccccn1 | > 100 |  |  |  |  |  |  |  |  |  |
| C1C[OH+]CC[OH+]CC[OH+]CC[OH+]CC[OH+]CC[OH+]1.[Cl-].[Nb+5] |  |  |  | > 100 |  |  |  |  |  | GI50 (KM20L2 colon): > 100 µM |
| COC(=O)C1CC(C(=O)OC)c2nc3cc(C)c(C)cc3nc21 (centres undefined) |  | > 100 | > 100 | > 100 | > 100 | > 100 | > 100 | > 100 | > 100 |  |
| Cc1cc(O)c(C(c2ccncc2)c2c(O)cc(C)[nH]c2=O)c(=O)[nH]1 | > 100 |  |  |  |  |  |  |  |  |  |
| O=C(Nc1cccc(C(F)(F)F)c1)c1cc(Br)cc(Br)c1O | > 10 |  |  |  |  |  |  |  |  |  |
| O=C1c2ccccc2-c2c1c1ccccc1c(=O)n2-c1ccccc1 | > 100 |  |  |  |  |  |  |  |  |  |
| C1CC[N-]CC1.CC(=N\O)/C(C)=N/O.CC(=N\O)/C(C)=N/O.[CH2-]CCN1CCOCC1.[Co+2] | > 100 |  |  |  |  |  |  |  |  | GI50 (MDA-N): > 100 µM |
| CN(C)CCNc1nc(-c2cccs2)cc(-c2cccs2)n1 |  | 24.4 |  |  | 28.1 |  | 34.1 | 12.1 |  |  |
| Cn1cc(NC(=O)c2cc(NC(=O)CCCCCCC(=O)Nc3cc(C(=O)Nc4cc(C(=O)NCCC(=N)N)n(C)c4)n(C)c3)cn2C)cc1C(=O)NCCC(=N)N |  | 12.7 | > 100 | > 100 | 38.4 | 8.89 | 69.5 | 83 |  |  |
| CN(C)CC1CCCC/C1=N/OC(=O)c1ccc(Cl)c(Cl)c1 (centres undefined) |  | > 100 | > 100 | > 100 | > 100 | > 100 |  |  | > 100 |  |
| Nc1nc(N)c(-c2ccccc2)c(CCC(=O)Nc2ccc(Cl)cc2)n1 |  | > 100 | > 100 | > 100 | > 100 | > 100 | > 100 |  |  |  |
